Results published in US20130309736A1, “COMPOSITIONS AND METHODS FOR MALATE AND FUMARATE PRODUCTION” (CARGILL, INCORPORATED, priority 2011, published 2013).

What was measured:
[1] = 15.5° C.; cited from earlier work
yeast cells = experiment: EMS mutagenesis, kill rate; assay type: cell-based; conditions: 3 μL EMS in 200 μL cell suspension (OD600 around 10), approximately one hour
Procedure: For example, yeast cells from a fresh YP (yeast extract/peptone)+20 g/L glucose plate or liquid culture (OD600 1-4) are resuspended in sterile water to an OD600 of around 10. 200 μL aliquots of this cell suspension are pipetted into individual tubes and exposed to 3 μL […] (EMS) for approximately one hour, which kills around 65% of the cells. Higher EMS concentrations can also be used to increase the kill rate. After exposure, cells are neutralized with 5% sodium thiosulfate, washed in PBS buffer, recovered in rich media for approximately four hours, and cultured on selective media. Mock samples (no EMS) are also run to ensure that the conditions are selective. Alternatively, cell can be mutagenized using UV irradiation.

[2] = system: Candida guilliermondii ATCC 20118; experiment: Growth rate in YPD shake flasks (first secondary screen); assay type: cell-based
Procedure: (§1) For the first secondary screen, growth rates were measured in YPD media containing 0 g/L malate at pH 3.0 or 200 g/L malate at pH 2.85. Shake flasks were inoculated with biomass harvested from seed flasks grown overnight to an OD600 of 6 to 10. 250 mL baffled growth rate flasks (50 mL working volume) were inoculated to an OD600 of 0.1 and grown at 250 rpm and 30° C. Samples were taken throughout the time course of the assay and analyzed for biomass growth via OD600. The resulting OD600 data was plotted and growth rates were established.

[3] = system: Candida sorbosivorans CD1978; experiment: as above; assay type: cell-based
Procedure: as §1

[4] = system: Candida vanderwaltii MUCL 30000; experiment: as above; assay type: cell-based
Procedure: as §1

[5] = system: Issatchenkia orientalis ATCC 60585; experiment: as above; assay type: cell-based
Procedure: as §1

[6] = system: Candida lambica ATCC 38617; experiment: as above; assay type: cell-based
Procedure: as §1
(§2) The same procedures were utilized to screen, rate, and score the original 91 wild-type yeast strains from the primary screen with media containing 0, 30, 45, and 60 g/L lactic acid at pH 3.0 (˜80% free acid). Due to difficulties in properly scoring some very weak growth that occasionally occurred at 60 g/L, 20 strains were re-tested in the primary screen. Of these 20 strains, eight were eliminated due to very slow growth relative to the rest of the test group. The remaining 12 strains were advanced into secondary screening. The secondary screen for lactic acid was the same as that described above for malate, except for changes in concentrations and pH values. Growth rates were measured at 0 g/L lactic acid, pH 3.0 and 50 g/L lactic acid, pH 2.85, and glucose consumption rates were measured in the presence of 50 g/L lactic acid, pH 2.85. Normalized values and weighted and summed scores were calculated for each strain as described above for malate.

[7] = system: Candida sorbosivorans ATCC 38619; experiment: as above; assay type: cell-based
Procedure: as §1, §2

[8] = system: Issatchenkia orientalis ATCC 24210; experiment: as above; assay type: cell-based
Procedure: as §1, §2

[9] = system: Issatchenkia orientalis ATCC PTA-6658; experiment: as above; assay type: cell-based
Procedure: as §1, §2

[10] = system: Issatchenkia orientalis CD1822; experiment: as above; assay type: cell-based
Procedure: as §1, §2

[11] = system: Saccharomyces bulderi ATCC MYA-404; experiment: as above; assay type: cell-based
Procedure: as §1, §2

[12] = system: Candida guilliermondii ATCC 20118; experiment: Glucose consumption rate in YPD shake flasks (second secondary screen); assay type: cell-based
Procedure: (§3) For the second secondary screen, glucose consumption was measured in YPD media containing 0 g/L malate at pH 3.0 or 200 g/L malate at pH 2.85. Shake flasks were inoculated with biomass harvested from seed flasks grown overnight to an OD600 of 6 to 10. 250 mL baffled glycolytic assay flasks (50 mL working volume) were inoculated to an OD600 of 0.1 and grown at 250 RPM and 30° C. Samples were taken throughout the time course of the assay and analyzed for glucose consumption using a 2700 Biochemistry Analyzer (Yellow Springs Instruments, YSI). The resulting data was plotted and glucose consumption rates were established.

[13] = system: Candida sorbosivorans CD1978; experiment: as above; assay type: cell-based
Procedure: as §3

[14] = system: Candida vanderwaltii MUCL 30000; experiment: as above; assay type: cell-based
Procedure: as §3

[15] = system: Issatchenkia orientalis ATCC 60585; experiment: as above; assay type: cell-based
Procedure: as §3

[16] = system: Candida lambica ATCC 38617; experiment: as above; assay type: cell-based
Procedure: as §3, §2

[17] = system: Candida sorbosivorans ATCC 38619; experiment: as above; assay type: cell-based
Procedure: as §3, §2

[18] = system: Issatchenkia orientalis ATCC 24210; experiment: as above; assay type: cell-based
Procedure: as §3, §2

[19] = system: Issatchenkia orientalis ATCC PTA-6658; experiment: as above; assay type: cell-based
Procedure: as §3, §2

[20] = system: Issatchenkia orientalis CD1822; experiment: as above; assay type: cell-based
Procedure: as §3, §2

[21] = system: Saccharomyces bulderi ATCC MYA-404; experiment: as above; assay type: cell-based
Procedure: as §3, §2

[22] = system: seven wild-type yeast strains; experiment: Range finding: overnight growth in microtiter wells with malate; assay type: cell-based; conditions: YPD, 30° C.
Procedure: The range of malate concentrations to utilize in primary screening procedures was determined by evaluating the ability of seven wild-type yeast strains (Candida sonorensis, Candida zemplinina, I. orientalis strain PTA-6658, I. orientalis strain CD1822, Kluyveromyces lactis, K. marxianus, S. cerevisiae strain CENPK 113-7D) to grow on media containing varying levels of malate. Cells were streaked onto YPD plates and grown overnight. A cell slurry with an OD600 of around 4 was made in YPD media, pH 3.0, and this slurry was used to inoculate microtiter wells containing various concentrations of malate to an OD600 of 0.05. Plates were covered with a gas permeable membrane and incubated in a 30° C./300 rpm shaker overnight. The optical densities of each well were measured at a wavelength of 600 nm in a GENios model plate reader (Tecan), and plates were observed visually for growth. The highest malate concentration that one or more of the strains grew in (350 g/L) was chosen as the upper range for primary screening procedure.

wild-type yeast strains = experiment: Additional primary screen: growth on microtiter plates with malate; assay type: cell-based; conditions: ten strains of 24 re-tested; 200 g/L malate, pH 2.85, microtiter plates, overnight
Procedure: For the primary screening procedure, 91 wild-type yeast strains were screened for growth on microtiter plates at pH 2.85 with 0 g/L, 150 g/L, 300 g/L, or 350 g/L pH 2.85 malate using the same protocol used for range finding. A fresh YPD plate was used for each strain, and a slurry with an OD600 of around 4 was made in YPD media, pH 3.0. The slurry was used to inoculate each well to an OD600 of 0.05. Plates were covered with a gas permeable membrane, and incubated in a 30° C./300 rpm shaker overnight. Optical densities of each well were measured at 600 nm in a GENios model plate reader, and plates were observed visually for growth. To account for plate-to-plate variability, I. orientalis PTA-6658 was included on all plates as a control. […] As such, an additional screen was added wherein the 24 strains that grew as well or better than the I. orientalis control strain were re-tested. […] These ten strains were advanced to the secondary screens. […] However, it is possible that one or more such strains could nonetheless meet the minimum requirements for a commercially viable fermentation process.

[23] = malate, slope of growth rates against acid concentration, scale 0 to 1
[24] = Candida sorbosivorans ATCC 24120, scale 0 to 1
[25] = Candida sorbosivorans ATCC 38619, YPD, 30° C.

O=C(O)/C=C/C(=O)O [Fumarate, trans-butanedioic acid]
water solubility [1]: 4.28 g/kg H2O

CCOS(C)(=O)=O [ethane methyl sulfonate]
cells killed (yeast cells): around 65%

O=C(O)CC(O)C(=O)O (stereo not drawn) [malate, hydroxybutanedioc acid]
Growth rate 200 g/L malate (pH 2.85) ([2]; YPD, 30° C.): 0.42 h^−1 | Normalized grade: Growth rate slope [2, 23]: 1.00 | Normalized grade: Growth rate 200 g/L malate (pH 2.85) ([2]; scale 0 to 1): 0.82 | Growth rate 200 g/L malate (pH 2.85) ([3]; YPD, 30° C.): 0.34 h^−1 | Normalized grade: Growth rate slope [3, 23]: 0.00 | Normalized grade: Growth rate 200 g/L malate (pH 2.85) ([3]; scale 0 to 1): 0.09 | Growth rate 200 g/L malate (pH 2.85) ([4]; YPD, 30° C.): 0.39 h^−1 | Normalized grade: Growth rate slope [4, 23]: 0.92 | Normalized grade: Growth rate 200 g/L malate (pH 2.85) ([4]; scale 0 to 1): 0.55 | Growth rate 200 g/L malate (pH 2.85) ([5]; YPD, 30° C.): 0.36 h^−1 | Normalized grade: Growth rate slope [5, 23]: 0.54 | Normalized grade: Growth rate 200 g/L malate (pH 2.85) ([5]; scale 0 to 1): 0.27 | Growth rate 200 g/L malate (pH 2.85) ([6]; YPD, 30° C.): 0.33 h^−1 | Normalized grade: Growth rate slope [6, 23]: 0.41 | Normalized grade: Growth rate 200 g/L malate (pH 2.85) ([6]; scale 0 to 1): 0.00 | Normalized grade: Growth rate slope ([7]; Candida sorbosivorans ATCC 24120, malate, slope of growth rates against acid concentration, scale 0 to 1): 0.92 | Normalized grade: Growth rate 200 g/L malate (pH 2.85) [7, 24]: 0.36 | Growth rate 200 g/L malate (pH 2.85) [7, 25]: 0.37 h^−1 | Growth rate 200 g/L malate (pH 2.85) ([8]; YPD, 30° C.): 0.39 h^−1 | Normalized grade: Growth rate slope [8, 23]: 0.56 | Normalized grade: Growth rate 200 g/L malate (pH 2.85) ([8]; scale 0 to 1): 0.55 | Growth rate 200 g/L malate (pH 2.85) ([9]; YPD, 30° C.): 0.44 h^−1 | Normalized grade: Growth rate slope [9, 23]: 0.67 | Normalized grade: Growth rate 200 g/L malate (pH 2.85) ([9]; scale 0 to 1): 1.00 | Growth rate 200 g/L malate (pH 2.85) ([10]; YPD, 30° C.): 0.42 h^−1 | Normalized grade: Growth rate slope [10, 23]: 0.67 | Normalized grade: Growth rate 200 g/L malate (pH 2.85) ([10]; scale 0 to 1): 0.82 | Growth rate 200 g/L malate (pH 2.85) ([11]; YPD, 30° C.): 0.39 h^−1 | Normalized grade: Growth rate slope [11, 23]: 1.00 | Normalized grade: Growth rate 200 g/L malate (pH 2.85) ([11]; scale 0 to 1): 0.55 | Glucose consumption rate 200 g/L malate (pH 2.85) ([12]; Candida guilliermondii ATCC 20118, YPD, 30° C.): 1.9 g L^−1 h^−1 | Normalized grade: Glucose consumption rate 200 g/L malate (pH 2.85) ([12]; Candida guilliermondii, scale 0 to 1): 0.30 | Glucose consumption rate 200 g/L malate (pH 2.85) ([13]; YPD, 30° C.): 1.85 g L^−1 h^−1 | Normalized grade: Glucose consumption rate 200 g/L malate (pH 2.85) ([13]; scale 0 to 1): 0.28 | Glucose consumption rate 200 g/L malate (pH 2.85) ([14]; YPD, 30° C.): 1.3 g L^−1 h^−1 | Normalized grade: Glucose consumption rate 200 g/L malate (pH 2.85) ([14]; scale 0 to 1): 0.00 | Glucose consumption rate 200 g/L malate (pH 2.85) ([15]; YPD, 30° C.): 2.7 g L^−1 h^−1 | Normalized grade: Glucose consumption rate 200 g/L malate (pH 2.85) ([15]; scale 0 to 1): 0.70 | Glucose consumption rate 200 g/L malate (pH 2.85) ([16]; YPD, 30° C.): 3.2 g L^−1 h^−1 | Normalized grade: Glucose consumption rate 200 g/L malate (pH 2.85) ([16]; scale 0 to 1): 0.95 | Normalized grade: Glucose consumption rate 200 g/L malate (pH 2.85) [17, 24]: 0.05 | Glucose consumption rate 200 g/L malate (pH 2.85) [17, 25]: 1.4 g L^−1 h^−1 | Glucose consumption rate 200 g/L malate (pH 2.85) ([18]; YPD, 30° C.): 3.1 g L^−1 h^−1 | Normalized grade: Glucose consumption rate 200 g/L malate (pH 2.85) ([18]; scale 0 to 1): 0.90 | Glucose consumption rate 200 g/L malate (pH 2.85) ([19]; YPD, 30° C.): 3.3 g L^−1 h^−1 | Normalized grade: Glucose consumption rate 200 g/L malate (pH 2.85) ([19]; scale 0 to 1): 1.00 | Glucose consumption rate 200 g/L malate (pH 2.85) ([20]; YPD, 30° C.): 3.3 g L^−1 h^−1 | Normalized grade: Glucose consumption rate 200 g/L malate (pH 2.85) ([20]; scale 0 to 1): 1.00 | Glucose consumption rate 200 g/L malate (pH 2.85) ([21]; YPD, 30° C.): 3.15 g L^−1 h^−1 | Normalized grade: Glucose consumption rate 200 g/L malate (pH 2.85) ([21]; scale 0 to 1): 0.93 | highest malate concentration that one or more of the strains grew in [22]: 350 g/L | optical density relative to the same strain in 0 g/L malic acid (wild-type yeast strains): greater than or equal to 50%
